The record followed here is ChEMBL document CHEMBL1201862, “PubChem BioAssay data set” (2004).

Structures are written as SMILES.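 Growth conditions: 96-well plates. Treatment: test compound, 48 hours, 5 concentrations. Analysis: linear interpolation between bracketing concentrations; unreached endpoints set to highest concentration. The concentration for 50% growth inhibition is given as GI50.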 The source made the active and inactive calls. Cut-off read from the data, not from the text of the source: active = GI50 up to about 1.1 µM and inactive = higher.

Some test systems named below: M14; KM-20L2; CCRF-CEM; SK-MEL-5; Malme-3M; SR; HOP-92; LOX IMVI; HCT-116; NCI-H522; HCC 2998; SF-295; SF-539; SW-620; SN12C; SNB-75; A498; 786-0; NCI/ADR-RES; MCF7.
What all share (assay): growth of human tumour cells (NCI), 48 h

Turning to `C[N+]1(CCNP(=S)(NCC[N+]2(C)Cc3c(ccc4c3OCO4)C3C2c2cc4c(cc2C[C@@H]3O)OCO4)NCC[N+]2(C)Cc3c(ccc4c3OCO4)C3C2c2cc4c(cc2C[C@@H]3O)OCO4)Cc2c(ccc3c2OCO3)C2C1c1cc3c(cc1C[C@H]2O)OCO3` (stereo partly drawn), the GI50 in the experiment on M14 is < 0.00191 µM (active); in the experiment on KM-20L2 it was < 0.00191 µM (active); in the experiment with CCRF-CEM, 1.27 µM (inactive); with SK-MEL-5 it was < 0.00191 µM (active); in the experiment on Malme-3M, < 0.00191 µM (active); in the experiment with SR, < 0.00191 µM (active). In addition, the GI50 with HOP-92, with LOX IMVI, in the experiment with HCT-116, in the experiment on NCI-H522, in the experiment on HCC 2998 and in the experiment on SF-295 was < 0.00191 µM (active) in each case. Moreover, the GI50 in the experiment with SF-539, with SW-620, in the experiment with SN12C, in the experiment with SNB-75, with A498 and with 786-0 was < 0.00191 µM (active) each time.

For the compound `CC(N)Cc1cccc(C(F)(F)F)c1` (stereo not drawn), the GI50 in the experiment with M14, with KM-20L2, with CCRF-CEM, in the experiment with SK-MEL-5, with Malme-3M and with SR was > 100 µM (inactive) each time. Besides, the GI50 in the experiment on HOP-92, in the experiment with LOX IMVI, in the experiment on HCT-116, in the experiment with NCI-H522, with HCC 2998 and with SF-295 was > 100 µM (inactive) throughout. Besides, the GI50 in the experiment with SF-539, in the experiment with SW-620, in the experiment with SN12C, with SNB-75, with A498 and in the experiment on 786-0 was > 100 µM (inactive) throughout.

Consider `CN(C)CCNC(=O)c1cccc2c(Nc3ccc(S(N)(=O)=O)cc3)c3ccccc3nc12`, for which the GI50 was 1.67 µM (inactive) in the experiment on M14; 2.71 µM (inactive) in the experiment with KM-20L2; 1.67 µM (inactive) with SK-MEL-5; 1.49 µM (inactive) with Malme-3M; 0.0551 µM (active) in the experiment on SR; 1.32 µM (inactive) with HOP-92. In addition, the GI50 was 0.531 µM (active) with LOX IMVI; 0.356 µM (active) with HCT-116; 0.252 µM (active) in the experiment with NCI-H522; 1.71 µM (inactive) with HCC 2998; 2.01 µM (inactive) with SF-295; 0.536 µM (active) in the experiment with SF-539. Moreover, the GI50 is 0.367 µM (active) in the experiment on SW-620; 0.656 µM (active) with SN12C; 1.26 µM (inactive) with SNB-75; 1.69 µM (inactive) with A498; 1.09 µM (active) in the experiment on 786-0.

Regarding `COc1ccc(C[C@@H]2NC[C@@H](O)[C@@H]2OC(C)=O)cc1`, the GI50 in the experiment on M14 was 0.0185 µM (active); in the experiment with KM-20L2 it was 3.95 µM (inactive); in the experiment with CCRF-CEM, 0.00899 µM (active); in the experiment on SK-MEL-5, 0.0104 µM (active); in the experiment on Malme-3M, 0.0385 µM (active); in the experiment with SR, 0.0164 µM (active). Also, the GI50 is 0.00618 µM (active) in the experiment on HOP-92; 0.00403 µM (active) in the experiment on LOX IMVI; 0.0103 µM (active) in the experiment on HCT-116; 0.0232 µM (active) in the experiment with NCI-H522; 0.0208 µM (active) with HCC 2998; 0.0253 µM (active) in the experiment with SF-295. Moreover, the GI50 is 0.0001 µM (active) with NCI/ADR-RES; 0.0234 µM (active) with SF-539; 0.0166 µM (active) with SW-620; 0.0229 µM (active) in the experiment on SN12C; 0.0135 µM (active) with MCF7; 0.0132 µM (active) with SNB-75. Also, the GI50 with A498 is 0.0157 µM (active); in the experiment on 786-0, 0.0219 µM (active).

On to `CCCCCCCCCCCCCCCCCC(CCCCCCCCCCCCCCCCC)OP(=O)(O)O`, for which the GI50 was > 100 µM (inactive) with M14; > 100 µM (inactive) in the experiment with KM-20L2; > 100 µM (inactive) in the experiment with CCRF-CEM; > 100 µM (inactive) in the experiment on SK-MEL-5; > 100 µM (inactive) in the experiment with Malme-3M; 42.9 µM (inactive) in the experiment with SR. Besides, the GI50 in the experiment on HOP-92, with LOX IMVI, in the experiment with HCT-116, in the experiment with NCI-H522, with HCC 2998 and in the experiment on SF-295 was > 100 µM (inactive) throughout. Besides, the GI50 in the experiment with SW-620, in the experiment with SN12C, in the experiment on SNB-75, in the experiment on A498 and in the experiment with 786-0 was > 100 µM (inactive) each time.

In the case of `Cc1ccc(NC(=O)C(=O)C(C2C(C)CC(=O)C2CC(=O)O)[N+](=O)[O-])cc1` (stereo not drawn), the GI50 in the experiment with M14, in the experiment on KM-20L2, with CCRF-CEM, in the experiment with SK-MEL-5, with Malme-3M and in the experiment on SR was > 100 µM (inactive) throughout. In addition, the GI50 in the experiment with HOP-92, in the experiment on LOX IMVI, in the experiment with HCT-116, in the experiment on HCC 2998, with SF-295 and in the experiment on SF-539 was > 100 µM (inactive) throughout. Also, the GI50 in the experiment with SW-620, with SN12C, in the experiment with SNB-75, in the experiment with A498 and in the experiment with 786-0 was > 100 µM (inactive) each time.

Regarding `C#CCNC(=O)NCCCC(NC(C)=O)C(=O)NCc1ccccc1` (stereo not drawn), the GI50 in the experiment with M14, with KM-20L2, in the experiment on CCRF-CEM, in the experiment on SK-MEL-5, in the experiment with Malme-3M and with SR was > 100 µM (inactive) in each case. Moreover, the GI50 in the experiment with HOP-92, in the experiment on LOX IMVI, in the experiment on HCT-116, with NCI-H522, in the experiment on HCC 2998 and in the experiment on SF-295 was > 100 µM (inactive) throughout. The GI50 in the experiment on SF-539, with SW-620, in the experiment on SN12C, in the experiment on SNB-75, with A498 and with 786-0 was > 100 µM (inactive) each time.

Regarding `CC(O)CCCOC(c1ccccc1)(c1ccccc1)c1ccccc1` (stereo not drawn), the GI50 was 15.5 µM (inactive) in the experiment on M14; 10.4 µM (inactive) with KM-20L2; 23.3 µM (inactive) in the experiment with CCRF-CEM; 11.8 µM (inactive) in the experiment with SK-MEL-5; 14.5 µM (inactive) with Malme-3M; 20.1 µM (inactive) in the experiment with SR. Also, the GI50 in the experiment with HOP-92 is 12.6 µM (inactive); with LOX IMVI, 15.2 µM (inactive); in the experiment with HCT-116, 13.8 µM (inactive); in the experiment on NCI-H522, 13.7 µM (inactive); with HCC 2998, 15.3 µM (inactive); in the experiment with SF-295, 13.8 µM (inactive). Further, the GI50 with NCI/ADR-RES was 11.7 µM (inactive); in the experiment on SF-539 it was 17.2 µM (inactive); in the experiment on SW-620, 16.6 µM (inactive); in the experiment with SN12C, 16.7 µM (inactive); with MCF7, 14.7 µM (inactive); with SNB-75, 12.6 µM (inactive). In addition, the values for the GI50 in the experiment on A498 and in the experiment with 786-0 were 20.1 µM (inactive) and 16.5 µM (inactive), respectively.

Turning to `COc1cc2c(c(OC)c1OC)-c1ccc(SC)c(=O)cc1[C@@H](NCc1ccc(F)cc1)CC2`, the GI50 in the experiment on M14, in the experiment with KM-20L2, with CCRF-CEM, with SK-MEL-5, in the experiment on Malme-3M and in the experiment with SR was < 0.0075 µM (active) in each case. In addition, the GI50 in the experiment on HOP-92, in the experiment with LOX IMVI, in the experiment with HCT-116, with NCI-H522, with HCC 2998 and in the experiment on SF-295 was < 0.0075 µM (active) each time. The GI50 was < 0.0075 µM (active) with SF-539; < 0.0075 µM (active) in the experiment with SW-620; < 0.0075 µM (active) in the experiment with SN12C; 12.7 µM (inactive) with SNB-75; < 0.0075 µM (active) with A498; < 0.0075 µM (active) with 786-0.

`C=C(C)C(O)CCC1(C)C=Cc2c(c(C)cc3c2[nH]c2ccccc23)O1` (stereo not drawn): the GI50 was 5.05 µM (inactive) in the experiment with M14; 3.99 µM (inactive) with KM-20L2; 7.74 µM (inactive) in the experiment with CCRF-CEM; 7.62 µM (inactive) in the experiment with SK-MEL-5; 11.3 µM (inactive) in the experiment with Malme-3M; 8.47 µM (inactive) with SR. For the same compound, the GI50 was 7.01 µM (inactive) in the experiment with HOP-92; 4.12 µM (inactive) in the experiment on LOX IMVI; 13.2 µM (inactive) in the experiment with HCT-116; 4.91 µM (inactive) in the experiment on NCI-H522; 5.65 µM (inactive) with HCC 2998; 4.34 µM (inactive) in the experiment on SF-295. The GI50 was 8.81 µM (inactive) with NCI/ADR-RES; 4.27 µM (inactive) in the experiment on SF-539; 4.48 µM (inactive) in the experiment on SW-620; 12.8 µM (inactive) with SN12C; 12.3 µM (inactive) with MCF7; 3.3 µM (inactive) with SNB-75. In addition, the GI50 in the experiment on A498 is 13.6 µM (inactive); in the experiment on 786-0 it was 4.91 µM (inactive).
